This is an account of results in patent publication US9533985B2, “Sulfonamide derivative and medicinal use thereof” (EA Pharma Co., Ltd., priority 2012, dated 2017).

This assay deals with α4β7 integrin (Homo sapiens (Human), UniProt P13612+P26010). The experiment in a line: MAdCAM-1/α4β7 integrin binding inhibitory activity evaluation test in the presence of serum (2). It is filed as cell-based. The conditions noted are these: RPMI-8866 cells binding to mouse MAdCAM-1/Fc, same manner as Test (3), read-out: α4β7 Rank of activity with serum added. On the procedure: The ability of test substances to inhibit the binding of a human B cell line, RPMI-8866, which is known to express α4β7 integrin, to MAdCAM-1 was measured.
Chain of α4β7 integrin (P13612 34-1032): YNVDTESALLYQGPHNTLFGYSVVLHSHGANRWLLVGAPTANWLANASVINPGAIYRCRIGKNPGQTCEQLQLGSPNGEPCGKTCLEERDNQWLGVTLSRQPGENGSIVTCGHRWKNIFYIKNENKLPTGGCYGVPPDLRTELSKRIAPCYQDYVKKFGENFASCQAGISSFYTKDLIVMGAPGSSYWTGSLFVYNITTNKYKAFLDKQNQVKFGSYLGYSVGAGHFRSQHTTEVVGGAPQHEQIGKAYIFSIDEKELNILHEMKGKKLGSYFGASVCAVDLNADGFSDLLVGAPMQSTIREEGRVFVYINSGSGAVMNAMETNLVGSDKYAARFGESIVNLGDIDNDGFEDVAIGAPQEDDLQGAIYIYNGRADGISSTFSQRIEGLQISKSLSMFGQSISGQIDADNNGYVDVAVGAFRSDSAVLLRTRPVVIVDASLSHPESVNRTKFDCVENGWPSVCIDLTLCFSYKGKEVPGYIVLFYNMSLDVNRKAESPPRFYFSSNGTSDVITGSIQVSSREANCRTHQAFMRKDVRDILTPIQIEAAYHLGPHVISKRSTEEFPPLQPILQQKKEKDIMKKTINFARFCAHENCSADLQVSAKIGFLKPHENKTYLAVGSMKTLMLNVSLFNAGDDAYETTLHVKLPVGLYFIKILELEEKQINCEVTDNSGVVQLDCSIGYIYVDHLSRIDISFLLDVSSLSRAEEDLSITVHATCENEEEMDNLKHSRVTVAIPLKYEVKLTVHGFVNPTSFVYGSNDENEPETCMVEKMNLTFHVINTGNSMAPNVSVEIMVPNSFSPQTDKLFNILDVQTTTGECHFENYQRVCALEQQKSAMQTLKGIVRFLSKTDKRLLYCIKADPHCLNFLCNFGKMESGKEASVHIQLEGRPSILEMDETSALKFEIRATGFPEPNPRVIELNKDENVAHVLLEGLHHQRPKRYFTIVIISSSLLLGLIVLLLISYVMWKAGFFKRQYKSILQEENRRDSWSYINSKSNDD
Chain of α4β7 integrin (P26010 20-798): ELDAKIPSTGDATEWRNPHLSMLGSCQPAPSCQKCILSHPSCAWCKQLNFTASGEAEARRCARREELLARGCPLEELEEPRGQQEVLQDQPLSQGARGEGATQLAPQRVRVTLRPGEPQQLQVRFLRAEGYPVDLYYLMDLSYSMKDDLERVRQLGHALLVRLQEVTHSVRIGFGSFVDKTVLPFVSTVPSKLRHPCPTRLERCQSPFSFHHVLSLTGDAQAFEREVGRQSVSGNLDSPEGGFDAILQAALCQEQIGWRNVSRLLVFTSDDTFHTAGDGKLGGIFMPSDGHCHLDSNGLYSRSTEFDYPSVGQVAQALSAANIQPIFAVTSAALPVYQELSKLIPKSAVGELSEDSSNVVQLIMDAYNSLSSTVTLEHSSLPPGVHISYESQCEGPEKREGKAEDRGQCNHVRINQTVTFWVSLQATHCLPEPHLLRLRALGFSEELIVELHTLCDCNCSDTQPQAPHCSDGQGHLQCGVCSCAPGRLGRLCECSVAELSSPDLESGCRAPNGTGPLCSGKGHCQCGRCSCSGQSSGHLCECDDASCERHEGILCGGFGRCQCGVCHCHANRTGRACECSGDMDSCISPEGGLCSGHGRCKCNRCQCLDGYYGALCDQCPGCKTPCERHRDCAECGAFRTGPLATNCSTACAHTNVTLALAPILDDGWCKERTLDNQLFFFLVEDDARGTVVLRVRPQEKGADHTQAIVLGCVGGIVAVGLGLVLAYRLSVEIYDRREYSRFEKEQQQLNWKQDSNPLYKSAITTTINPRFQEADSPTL
To 96-well microtiter plates, recombinant mouse MAdCAM-1/Fc (R&D systems) solution (1 μg/mL) diluted with buffer A (carbonate buffer, pH 9.6) was added at 50 μL/well, followed by incubation at 4° C. overnight. After washing once with PBS, Block Ace (Snow Brand Milk Products Company, Limited) was added at 150 μL/well, followed by incubation at room temperature for 2 hours. After removal, washing was conducted once with PBS.
100 μL of each test substance diluted with a binding buffer (DMEM containing 40 mM HEPES, 0.2% BSA, and 4 mM MnCl2) to various concentrations and 100 μL of RPMI-8866 cells (2×10^6 cell/mL) were added to plates coated with MAdCAM-1/Fc (5×10^5 cells/well) with human serum being contained at a final concentration of 50%, followed by incubation at 30° C. for 15 minutes to 60 minutes. After the cells were bound to each well, unbound cells were removed by washing with PBS. To the plates, buffer C (PBS containing 1.5% Triton X-100) was added at 50 μL/well to lyse the bound RPMI-8866 cells. To 30 μL of the cell lysate, 30 μL of Substrate Buffer (Promega, CytoTox 96 Non-Radioactive Cytotoxicity Assay) was added, and the reaction was allowed to proceed at room temperature in a dark place for 30 minutes. To each well, 30 μL of Stop Solution (Promega, CytoTox 96 Non-Radioactive Cytotoxicity Assay) was added, and the absorbance at 490 nm was measured by using a plate reader. Here, by the obtained absorbance, the activity of the lactate dehydrogenase (LDH) dissolved into the supernatant of each well was detected. In other words, the absorbance was proportional to the number of the RPMI-8866 cells bound to MAdCAM-1 and remaining on the plate. The test was duplicated. The binding ratios of the cells at various concentrations were determined, with the absorbance of a well containing no test substance taken as 100%. Then, the concentration IC50, at which 50% binding inhibition was achieved, was calculated.
The MAdCAM-1/α4β7 integrin binding inhibitory activity in the presence of serum was measured in the same manner as in Test (3) described above. […] The VCAM-1/α4β1 integrin binding inhibitory activity evaluation test and the MAdCAM-1/α4β7 integrin binding inhibitory activity evaluation test were carried out according to the methods described in Tests (1) and (2) described above.

Each structure is given as a SMILES string.

For the compound `Cn1c(=O)n(-c2ccc(C[C@H](NC(=O)c3cc(F)c(NS(=O)(=O)c4ccc(-n5cnnn5)cc4)cc3F)C(=O)O)nc2)c(=O)c2ccncc21` [Example 218, N-[2,5-Difluoro-4-({[4-(1H-tetrazol-1-yl)phenyl]sulfonyl}amino)benzoyl]-3-[5-(1-methyl-2,4-dioxo-1,4-dihydropyrido[3,4-d]pyrimidin-3(2H)-yl)pyridin-2-yl]-L-alanine], the IC50 lay in the range of 10 to 50 nM.
On to `CCc1ncc(-c2ccc(S(=O)(=O)Nc3cc(F)c(C(=O)N[C@@H](Cc4ccc(-n5c(=O)c6ccncc6n(C)c5=O)cn4)C(=O)O)cc3F)nc2)cn1` [Example 236, N-[4-({[5-(2-Ethylpyrimidin-5-yl)pyridin-2-yl]sulfonyl}amino)-2,5-difluorobenzoyl]-3-[5-(1-methyl-2,4-dioxo-1,4-dihydropyrido[3,4-d]pyrimidin-3(2H)-yl)pyridin-2-yl]-L-alanine], for which the IC50 fell in the range of 10 to 50 nM.
As for `COc1ccccc1S(=O)(=O)Nc1cc(F)c(C(=O)N[C@@H](Cc2ccc(-n3c(=O)c4ccncc4n(C)c3=O)cn2)C(=O)O)c(F)c1` [Example 145, N-(2,6-Difluoro-4-{[(2-methoxyphenyl)sulfonyl]amino}benzoyl)-3-[5-(1-methyl-2,4-dioxo-1,4-dihydropyrido[3,4-d]pyrimidin-3(2H)-yl)pyridin-2-yl]-L-alanine], the IC50 was at most 10 nM.
Take `Cc1ccc(-c2ccc(S(=O)(=O)Nc3cc(F)c(C(=O)N[C@@H](Cc4ccc(-n5c(=O)c6ccncc6n(C)c5=O)cc4)C(=O)O)c(F)c3)nc2)cn1` [Example 151, N-(2,6-Difluoro-4-{[(6′-methyl-3,3′-bipyridin-6-yl)sulfonyl]amino}benzoyl)-4-(1-methyl-2,4-dioxo-1,4-dihydropyrido[3,4-d]pyrimidin-3(2H)-yl)-L-phenylalanine]: the IC50 lay in the range of 10 to 50 nM.
In the case of `Cn1ccc(=O)n(-c2ccc(C[C@H](NC(=O)c3c(F)cc(NS(=O)(=O)c4ccc(C(=O)NCC5CCOCC5)cc4)cc3F)C(=O)O)cc2)c1=O` [Example 172, N-(2,6-Difluoro-4-{[(4-{[(tetrahydro-2H-pyran-4-yl-methyl)amino]carbonyl}phenyl)sulfonyl]amino}benzoyl)-4-(3-methyl-2,6-dioxo-3,6-dihydropyrimidin-1(2H)-yl)-L-phenylalanine], the IC50 is at most 10 nM.
As to `COc1ncc(-c2ccc(S(=O)(=O)Nc3cc(F)c(C(=O)N[C@@H](Cc4ccc(-n5c(=O)c6ccncc6n(C)c5=O)cn4)C(=O)O)cc3F)cc2)cn1` [Example 228, N-[2,5-Difluoro-4-({[4-(2-methoxypyrimidin-5-yl)phenyl]sulfonyl}amino)benzoyl]-3-[5-(1-methyl-2,4-dioxo-1,4-dihydropyrido[3,4-d]pyrimidin-3(2H)-yl)pyridin-2-yl]-L-alanine], the IC50 lay within 50 to 200 nM.
In the case of `Cn1c(=O)n(-c2ccc(C[C@H](NC(=O)c3cc(F)c(NS(=O)(=O)c4ccc(-n5cncn5)cc4)cc3F)C(=O)O)nc2)c(=O)c2ccncc21` [Example 224, N-[2,5-Difluoro-4-({[4-(1H-1,2,4-triazol-1-yl)phenyl]sulfonyl}amino)benzoyl]-3-[5-(1-methyl-2,4-dioxo-1,4-dihydropyrido[3,4-d]pyrimidin-3(2H)-yl)pyridin-2-yl]-L-alanine] it was 10 to 50 nM.
Consider `Cn1c(=O)n(-c2ccc(C[C@H](NC(=O)c3ccc(NS(=O)(=O)c4ccco4)cc3F)C(=O)O)nc2)c(=O)c2ccncc21` [Example 139, N-{2-Fluoro-4-[(2-furylsulfonyl)amino]benzoyl}-3-[5-(1-methyl-2,4-dioxo-1,4-dihydropyrido[3,4-d]pyrimidin-3(2H)-yl)pyridin-2-yl]-L-alanine], for which the IC50 was in the range of 10 to 50 nM.
Regarding `Cc1cc(C(=O)NC(C)(C)C)ccc1S(=O)(=O)Nc1cc(F)c(C(=O)N[C@@H](Cc2ccc(-n3c(=O)ccn(C)c3=O)cc2)C(=O)O)c(F)c1` [Example 158, N-{4-[({4-[(tert-Butylamino)carbonyl]-2-methylphenyl}sulfonyl)amino]-2,6-difluorobenzoyl}-4-(3-methyl-2,6-dioxo-3,6-dihydropyrimidin-1(2H)-yl)-L-phenylalanine], the IC50 was at most 10 nM.
